Blank lines part the entries; values can stand above or below the compound they belong to.
How the values were obtained:
cAR1 [1] = target: T1, cAR1 (Dictyostelium discoideum, UniProt P13773); test: cell-based
T1 sequence (P13773 1-392): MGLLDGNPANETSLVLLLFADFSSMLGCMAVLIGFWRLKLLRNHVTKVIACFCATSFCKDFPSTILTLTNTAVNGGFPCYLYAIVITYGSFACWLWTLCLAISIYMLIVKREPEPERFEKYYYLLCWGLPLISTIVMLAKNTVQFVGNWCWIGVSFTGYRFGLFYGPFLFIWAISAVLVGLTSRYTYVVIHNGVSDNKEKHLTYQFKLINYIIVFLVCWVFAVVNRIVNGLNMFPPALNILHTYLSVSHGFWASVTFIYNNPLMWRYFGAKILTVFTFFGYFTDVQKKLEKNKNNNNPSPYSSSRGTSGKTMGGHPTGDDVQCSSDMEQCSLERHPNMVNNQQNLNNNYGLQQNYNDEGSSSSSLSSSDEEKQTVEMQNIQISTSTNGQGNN

[2] = system: cAMP-induced Gα2βγ subunit dissociation; test: BRET^2 assay after drug pretreatment; format: cell-based, Dictyostelium; details: for effect on interaction of Gα2 with βγ in resting cells (basal BRET^2 signal): 5 μM LatA or 50 μM Benomyl for 15 min
[3] = system: 5.5 h-differentiated wild-type cells; test: DIC and fluorescence confocal imaging of drug-treated cells; format: cell-based, Dictyostelium; details: 5 μM LatA or 50 μM Benomyl for 15 min; Lifeact-GFP / tubulin-GFP reporters
cAR1 [4] = target: T1, cAR1
cAMP binding sites = details: 10 mM caffeine, whole cells; cited from earlier work

Compound: Nc1ncnc2c1ncn2[C@H]1C[C@H](O)[C@@H](COP(=O)(O)O)O1 [2’-dcAMP, 2’-deoxyadenosine-5’-monophosphate]
EC50 (cAR1 [1]): ~17 nM

Compound: CCCCNC(=O)n1c(NC(=O)OC)nc2ccccc21 [Benomyl]
effect on interaction of Gα2 with βγ in resting cells (basal BRET^2 signal) [2]: did not affect
effect on cell morphology [3]: loss of morphological cell polarity

Compound: C/C1=C/C(=O)O[C@@H]2C[C@@H](CC[C@H](C)/C=C\C=C\CC1)O[C@@](O)([C@@H]1CSC(=O)N1)C2 [LatA, Latrunculin A]
effect on interaction of Gα2 with βγ in resting cells (basal BRET^2 signal) [2]: did not affect
effect on cell morphology [3]: loss of morphological cell polarity

time to steady state of BRET^2 loss after stimulation (cAR1 [4]; 10 μM cAMP): approximately 20 s
decrease in total BRET^2 signal (cAR1 [4]; 10 μM cAMP, Gα2GFP^2/Rluc2Gβ/gα2^− cells): 30–40
total BRET^2 signal after stimulation (cAR1 [4]; 10 μM cAMP, Gα2GFP^2/Rluc2Gβ/gα2^− cells, 63 mBU before stimulation): 36 mBU
cAMP concentration inducing the full G protein dissociation response (cAR1 [4]; Gα2GFP^2/Rluc2Gβ/gα2^− cells): 500 nM
G protein subunit dissociation in cells lacking only cAR3 (extent and potency) (cAR1 [4]; carC^− cells): comparable to that in wild-type cells
Compound: Nc1ncnc2c1ncn2[C@@H]1O[C@@H]2COP(=O)(O)O[C@H]2[C@H]1O [cAMP, cyclic adenosine monophosphate]
G protein subunit dissociation in cells lacking cAR1 (cAR1 [4]; 10 μM cAMP, carA^− and carA^−carC^− cells, undifferentiated and 5.5 h-differentiated): fails to induce considerable G protein subunit dissociation

Compound: Cn1c(=O)c2c(ncn2C)n(C)c1=O [caffeine]
effect on cAMP binding sites (cAMP binding sites): conversion of most binding sites to the low affinity conformation
effect of caffeine on potency of cAMP-induced Gα2βγ subunit dissociation ([2]; 5 mM caffeine, in parallel to untreated cells): significantly increased potency
